Results taken from US20210045385A1, “PYRIDAZINONE-SUBSTITUTED KETOXIMES AS HERBICIDES” (FMC Corporation, priority 2018, published 2021).

Legend:
Assay type in all cases: in vivo
[1] = system: barnyardgrass (Echinochloa crus-galli); assay: Test D flooded paddy test, visual plant response rating; details: 250 g ai/ha, scale 0 to 100 (0 no effect, 100 complete control), 13 to 15 d
Method in brief: (§1)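 2-leaf plants, flooded 3 cm, cpd into paddy water; greenhouse 13–15 d; visual rating vs controls, 0 = no effect, 100 = complete control; dash = no result.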

[2] = system: rice (Oryza sativa); assay: as above; details: 250 g ai/ha, scale 0 to 100 (0 no effect, 100 complete control), 13 to 15 d
Method in brief: as §1

[3] = system: sedge umbrella (small-flower umbrella sedge, Cyperus difformis); assay: as above; details: 250 g ai/ha, scale 0 to 100 (0 no effect, 100 complete control), 13 to 15 d
Method in brief: as §1

[4] = system: duck salad (Heteranthera limosa); assay: as above; details: 250 g ai/ha, scale 0 to 100 (0 no effect, 100 complete control), 13 to 15 d
Method in brief: as §1

[5] = system: ragweed (common ragweed, Ambrosia artemisiifolia); assay: Test C postemergence, visual plant response rating
Method in brief: (§2)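 Compounds in a non-phytotoxic solvent with surfactant were applied as a directed soil spray preemergence or to 2–10 cm, one- to two-leaf plants postemergence, in loam–sand soil. After about 10 d in a greenhouse, injury was visually rated against untreated controls on a 0–100 scale (100 = complete control).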

[6] = system: pigweed (Amaranthus retroflexus); assay: Test C postemergence, visual plant response rating
Method in brief: as §2

[7] = system: barnyardgrass (Echinochloa crus-galli); assay: Test C postemergence, visual plant response rating
Method in brief: as §2

[8] = system: galium (catchweed bedstraw, Galium aparine); assay: Test C postemergence, visual plant response rating
Method in brief: as §2

[9] = system: Italian ryegrass (Lolium mutiflorum); assay: Test C postemergence, visual plant response rating
Method in brief: as §2

[10] = system: kochia (Bassia scoparia); assay: Test C postemergence, visual plant response rating
Method in brief: as §2

[11] = system: foxtail, giant (giant foxtail, Setaria faberi); assay: Test C postemergence, visual plant response rating
Method in brief: as §2

[12] = system: blackgrass (Alopecurus myosuroides); assay: Test C postemergence, visual plant response rating
Method in brief: as §2

[13] = system: wheat (Triticum aestivum); assay: Test C postemergence, visual plant response rating
Method in brief: as §2

[14] = system: corn (Zea mays); assay: Test C postemergence, visual plant response rating
Method in brief: as §2

[15] = system: ragweed (common ragweed, Ambrosia artemisiifolia); assay: Test C preemergence, visual plant response rating; details: Test C, 0 is no effect, 100 is complete control
Method in brief: as §2

[16] = system: pigweed (Amaranthus retroflexus); assay: Test C preemergence, visual plant response rating; details: Test C, 0 is no effect, 100 is complete control
Method in brief: as §2

[17] = system: barnyardgrass (Echinochloa crus-galli); assay: Test C preemergence, visual plant response rating; details: Test C, 0 is no effect, 100 is complete control
Method in brief: as §2

[18] = system: Italian ryegrass (Lolium mutiflorum); assay: Test C preemergence, visual plant response rating; details: Test C, 0 is no effect, 100 is complete control
Method in brief: as §2

[19] = system: kochia (Bassia scoparia); assay: Test C preemergence, visual plant response rating; details: Test C, 0 is no effect, 100 is complete control
Method in brief: as §2

[20] = system: foxtail, giant (giant foxtail, Setaria faberi); assay: Test C preemergence, visual plant response rating; details: Test C, 0 is no effect, 100 is complete control
Method in brief: as §2

[21] = Test C, postemergence, 125 g ai/ha

Row | SMILES | Plant response rating, Barnyardgrass (Flood) [1] | Plant response rating, Rice (Flood) [2] | Plant response rating, Sedge, Umbrella (Flood) [3] | Plant response rating, Ducksalad (Flood) [4] | Ragweed plant response rating (0 to 100 scale) ([5]; Postemergence, 31 g ai/ha) | Ragweed plant response rating (0 to 100 scale) [5, 21] | Pigweed plant response rating (0 to 100 scale) ([6]; Postemergence, 31 g ai/ha) | Pigweed plant response rating (0 to 100 scale) [6, 21] | Barnyardgrass plant response rating (0 to 100 scale) ([7]; Postemergence, 31 g ai/ha) | Barnyardgrass plant response rating (0 to 100 scale) [7, 21] | Galium plant response rating (0 to 100 scale) ([8]; Postemergence, 31 g ai/ha) | Galium plant response rating (0 to 100 scale) [8, 21] | Ryegrass, Italian plant response rating (0 to 100 scale) ([9]; Postemergence, 31 g ai/ha) | Ryegrass, Italian plant response rating (0 to 100 scale) [9, 21] | Kochia plant response rating (0 to 100 scale) ([10]; Postemergence, 31 g ai/ha) | Kochia plant response rating (0 to 100 scale) [10, 21] | Foxtail, Giant plant response rating (0 to 100 scale) ([11]; Postemergence, 31 g ai/ha) | Foxtail, Giant plant response rating (0 to 100 scale) [11, 21] | Blackgrass plant response rating (0 to 100 scale) ([12]; Postemergence, 31 g ai/ha) | Blackgrass plant response rating (0 to 100 scale) [12, 21] | other results
1 | CO/N=C(/c1c(O)c(C)nn(C)c1=O)c1cccc2cc(Cl)ccc12 [Compound 301] | 0 | 0 | 0 | 0 | 10 | 30 | 50 | 70 | 20 | 40 | 70 | 90 | 0 | 10 | 0 | 30 | 40 | 70 | 0 | 60 | Wheat plant response rating (0 to 100 scale) ([13]; Postemergence, 31 g ai/ha): 0; Wheat plant response rating (0 to 100 scale) [13, 21]: 0; Corn plant response rating (0 to 100 scale) ([14]; Postemergence, 31 g ai/ha): 0; Corn plant response rating (0 to 100 scale) [14, 21]: 20; Ragweed plant response rating (0 to 100 scale) ([15]; 31 g ai/ha): 0; Ragweed plant response rating (0 to 100 scale) ([15]; 125 g ai/ha): 0; Pigweed plant response rating (0 to 100 scale) ([16]; 31 g ai/ha): 0; Pigweed plant response rating (0 to 100 scale) ([16]; 125 g ai/ha): 20; Barnyardgrass plant response rating (0 to 100 scale) ([17]; 31 g ai/ha): 0; Barnyardgrass plant response rating (0 to 100 scale) ([17]; 125 g ai/ha): 40; Ryegrass, Italian plant response rating (0 to 100 scale) ([18]; 31 g ai/ha): 0; Ryegrass, Italian plant response rating (0 to 100 scale) ([18]; 125 g ai/ha): 30; Kochia plant response rating (0 to 100 scale) ([19]; 31 g ai/ha): 0; Kochia plant response rating (0 to 100 scale) ([19]; 125 g ai/ha): 0; Foxtail, Giant plant response rating (0 to 100 scale) ([20]; 31 g ai/ha): 20; Foxtail, Giant plant response rating (0 to 100 scale) ([20]; 125 g ai/ha): 80
2 | CO/N=C(/c1c(O)c(C)nn(C)c1=O)c1cccc2cc(SC)ccc12 [Compound 297] | 0 | 0 | 0 | 0 | 0 | 0 | 0 | 0 | 0 | 0 | 0 | 0 | 0 | 0 | 0 | 0 | 0 | 0 | 0 | 0 | Wheat plant response rating (0 to 100 scale) ([13]; Postemergence, 31 g ai/ha): 0; Wheat plant response rating (0 to 100 scale) [13, 21]: 0; Corn plant response rating (0 to 100 scale) ([14]; Postemergence, 31 g ai/ha): 0; Corn plant response rating (0 to 100 scale) [14, 21]: 0; Ragweed plant response rating (0 to 100 scale) ([15]; 31 g ai/ha): 0; Ragweed plant response rating (0 to 100 scale) ([15]; 125 g ai/ha): 0; Pigweed plant response rating (0 to 100 scale) ([16]; 31 g ai/ha): 0; Pigweed plant response rating (0 to 100 scale) ([16]; 125 g ai/ha): 0; Barnyardgrass plant response rating (0 to 100 scale) ([17]; 31 g ai/ha): 0; Barnyardgrass plant response rating (0 to 100 scale) ([17]; 125 g ai/ha): 0; Ryegrass, Italian plant response rating (0 to 100 scale) ([18]; 31 g ai/ha): 0; Ryegrass, Italian plant response rating (0 to 100 scale) ([18]; 125 g ai/ha): 0; Kochia plant response rating (0 to 100 scale) ([19]; 31 g ai/ha): 0; Kochia plant response rating (0 to 100 scale) ([19]; 125 g ai/ha): 0; Foxtail, Giant plant response rating (0 to 100 scale) ([20]; 31 g ai/ha): 0; Foxtail, Giant plant response rating (0 to 100 scale) ([20]; 125 g ai/ha): 0
3 | CC(C)O/N=C(\c1c(O)c(Cl)nn(C)c1=O)c1ccc(F)c2ccccc12 [Compound 210] | 0 | 0 | 90 | 45 | 90 | 90 | 40 | 100 | 40 | 70 | 90 | 100 | 0 | 20 | 30 | 40 | 70 | 90 | 0 | 30 | Wheat plant response rating (0 to 100 scale) ([13]; Postemergence, 31 g ai/ha): 0; Wheat plant response rating (0 to 100 scale) [13, 21]: 0; Corn plant response rating (0 to 100 scale) ([14]; Postemergence, 31 g ai/ha): 20; Corn plant response rating (0 to 100 scale) [14, 21]: 20; Ragweed plant response rating (0 to 100 scale) ([15]; 31 g ai/ha): 0; Ragweed plant response rating (0 to 100 scale) ([15]; 125 g ai/ha): 90; Pigweed plant response rating (0 to 100 scale) ([16]; 31 g ai/ha): 30; Pigweed plant response rating (0 to 100 scale) ([16]; 125 g ai/ha): 100; Barnyardgrass plant response rating (0 to 100 scale) ([17]; 31 g ai/ha): 30; Barnyardgrass plant response rating (0 to 100 scale) ([17]; 125 g ai/ha): 80; Ryegrass, Italian plant response rating (0 to 100 scale) ([18]; 31 g ai/ha): 0; Ryegrass, Italian plant response rating (0 to 100 scale) ([18]; 125 g ai/ha): 20; Kochia plant response rating (0 to 100 scale) ([19]; 31 g ai/ha): 0; Kochia plant response rating (0 to 100 scale) ([19]; 125 g ai/ha): 0; Foxtail, Giant plant response rating (0 to 100 scale) ([20]; 31 g ai/ha): 90; Foxtail, Giant plant response rating (0 to 100 scale) ([20]; 125 g ai/ha): 100
4 | C#CCO/N=C(/c1cccc(/C=C/Cl)c1)c1c(O)c(C)nn(C)c1=O [Compound 253] | 0 | 0 | 0 | 0 | 30 | 40 | 50 | 70 | 10 | 40 | 30 | 50 | 10 | 60 | 20 | 60 | 20 | 50 | 20 | 60 | Wheat plant response rating (0 to 100 scale) ([13]; Postemergence, 31 g ai/ha): 0; Wheat plant response rating (0 to 100 scale) [13, 21]: 30; Corn plant response rating (0 to 100 scale) ([14]; Postemergence, 31 g ai/ha): 0; Corn plant response rating (0 to 100 scale) [14, 21]: 0; Ragweed plant response rating (0 to 100 scale) ([15]; 31 g ai/ha): 0; Ragweed plant response rating (0 to 100 scale) ([15]; 125 g ai/ha): 0; Pigweed plant response rating (0 to 100 scale) ([16]; 31 g ai/ha): 0; Pigweed plant response rating (0 to 100 scale) ([16]; 125 g ai/ha): 80; Barnyardgrass plant response rating (0 to 100 scale) ([17]; 31 g ai/ha): 0; Barnyardgrass plant response rating (0 to 100 scale) ([17]; 125 g ai/ha): 0; Ryegrass, Italian plant response rating (0 to 100 scale) ([18]; 31 g ai/ha): 0; Ryegrass, Italian plant response rating (0 to 100 scale) ([18]; 125 g ai/ha): 30; Kochia plant response rating (0 to 100 scale) ([19]; 31 g ai/ha): 0; Kochia plant response rating (0 to 100 scale) ([19]; 125 g ai/ha): 0; Foxtail, Giant plant response rating (0 to 100 scale) ([20]; 31 g ai/ha): 0; Foxtail, Giant plant response rating (0 to 100 scale) ([20]; 125 g ai/ha): 10
